Source: US12077503B2, “Substituted cyclic amides and their use as herbicides” (FMC CORPORATION, priority 2015, dated 2024)
Read-outs that look alike come from different tables or passages of the source.

Assays:
Type in all cases: in vivo
[1] = test system: pigweed (Amaranthus retroflexus); assay: Test A preemergence; conditions: Amaranthus retroflexus, pre-emergence, 240 h; for pest or weed control at 125 g/ha: 125 g ai/ha; for pest or weed control at 500 g/ha: 500 g ai/ha
[2] = test system: pigweed (Amaranthus retroflexus); assay: Test A postemergence; conditions: Amaranthus retroflexus, post-emergence, 240 h, 125 g ai/ha
Procedure, shortened: (§1)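 Greenhouse, ~10 d after spray; visual injury vs untreated controls, 0 = no effect, 100 = complete control. Preemergence: directed soil spray over planted seeds. Postemergence: plants 2–10 cm, 1–2 leaf stage. Loam/sand blend. Compound in non-phytotoxic solvent with surfactant.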

[3] = test system: giant foxtail (Setaria faberii); assay: Test A postemergence; conditions: Setaria faberi, post-emergence, 240 h, 125 g ai/ha
Procedure, shortened: as §1

[4] = test system: blackgrass (Alopecurus myosuroides); assay: Test A postemergence; conditions: Alopecurus myosuroides, post-emergence, 240 h, 125 g ai/ha
Procedure, shortened: as §1

[5] = test system: wheat (Triticum aestivum); assay: Test A postemergence; conditions: Triticum aestivum, post-emergence, 240 h, 125 g ai/ha
Procedure, shortened: as §1

[6] = test system: ragweed (common ragweed, Ambrosia elatior); assay: Test A postemergence; conditions: Ambrosia artemisiifolia, post-emergence, 240 h, 125 g ai/ha
Procedure, shortened: as §1

[7] = test system: Galium (catchweed bedstraw, Galium aparine); assay: Test A postemergence; conditions: Galium, post-emergence, 240 h, 125 g ai/ha
Procedure, shortened: as §1

[8] = test system: ryegrass, Italian (Italian ryegrass, Lolium multiflorum); assay: Test A postemergence; conditions: Lolium multiflorum, post-emergence, 240 h, 125 g ai/ha
Procedure, shortened: as §1

[9] = test system: barnyardgrass (Echinochloa crus-galli); assay: Test A postemergence; conditions: Echinochloa crus-galli, post-emergence, 240 h, 125 g ai/ha
Procedure, shortened: as §1

Kochia (Kochia scoparia) = assay: Test A postemergence; conditions: Bassia scoparia, post-emergence, 240 h, 125 g ai/ha
Procedure, shortened: as §1

corn (Zea mays) = assay: Test A postemergence; conditions: Zea mays, post-emergence, 240 h, 125 g ai/ha
Procedure, shortened: as §1

rice (Oryra sativa) = assay: Test B flooded paddy test; conditions: Oryza sativa, Flood, 250 g ai/ha; scale of 0 to 100 where 0 is no effect and 100 is complete control; read-out: Rice plant response rating
Procedure, shortened: (§2)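 Plants at 2-leaf stage flooded to 3 cm above soil, with compounds applied directly to paddy water and that depth maintained. Plants kept in greenhouse 13–15 d. Visual rating versus controls on a 0 (no effect) to 100 (complete control) scale.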

[10] = test system: ducksalad (Heteranthera limosa); assay: Test B flooded paddy test; conditions: Heteranthera limosa, Flood, 250 g ai/ha; scale of 0 to 100 where 0 is no effect and 100 is complete control; read-out: Ducksalad plant response rating
Procedure, shortened: as §2

[11] = test system: barnyardgrass (Echinochloa crus-galli); assay: Test B flooded paddy test; conditions: Echinochloa crus-galli, Flood, 250 g ai/ha; scale of 0 to 100 where 0 is no effect and 100 is complete control; read-out: Barnyardgrass plant response rating
Procedure, shortened: as §2

[12] = test system: sedge, umbrella (small-flower umbrella sedge, Cyperus difformis); assay: Test B flooded paddy test; conditions: Cyperus difformis, Flood, 250 g ai/ha; scale of 0 to 100 where 0 is no effect and 100 is complete control; read-out: Sedge, Umbrella plant response rating
Procedure, shortened: as §2

COc1c(F)ccc([C@H]2CN(C)C(=O)[C@@H]2C(=O)Nc2ccccc2S(C)(=O)=O)c1Cl [Compound 897]
20%: pest or weed control at 125 g/ha ([6]; postemergence, visual injury rating after approximately 10 d, read-out: Ragweed plant response rating (0 to 100 scale, 0 no effect, 100 complete control)) | pest or weed control at 125 g/ha ([8]; postemergence, visual injury rating after approximately 10 d, read-out: Ryegrass, Italian plant response rating (0 to 100 scale, 0 no effect, 100 complete control))
60%: pest or weed control at 500 g/ha ([1]; Preemergence, visual injury vs untreated controls after approximately 10 d, read-out: Pigweed plant response rating (0 to 100 scale where 0 is no effect and 100 is complete control))
80%: pest or weed control at 125 g/ha ([3]; postemergence, visual injury rating after approximately 10 d, read-out: Foxtail, Giant plant response rating (0 to 100 scale, 0 no effect, 100 complete control))
45%: pest or weed control at 250 g/ha [10] | pest or weed control at 250 g/ha [11]
0%: pest or weed control at 125 g/ha ([2]; postemergence, visual injury rating after approximately 10 d, read-out: Pigweed plant response rating (0 to 100 scale, 0 no effect, 100 complete control)) | pest or weed control at 250 g/ha (rice (Oryra sativa)) | pest or weed control at 250 g/ha [12]
40%: pest or weed control at 125 g/ha ([7]; postemergence, visual injury rating after approximately 10 d, read-out: Galium plant response rating (0 to 100 scale, 0 no effect, 100 complete control))
30%: pest or weed control at 125 g/ha ([1]; preemergence, 0 to 100 scale where 0 is no effect and 100 is complete control, read-out: Pigweed plant response rating) | pest or weed control at 125 g/ha ([4]; postemergence, visual injury rating after approximately 10 d, read-out: Blackgrass plant response rating (0 to 100 scale, 0 no effect, 100 complete control)) | plant injury at 125 g/ha ([5]; postemergence, visual injury rating after approximately 10 d, read-out: Wheat plant response rating (0 to 100 scale, 0 no effect, 100 complete control)) | pest or weed control at 125 g/ha (Kochia (Kochia scoparia); postemergence, visual injury rating after approximately 10 d, read-out: Kochia plant response rating (0 to 100 scale, 0 no effect, 100 complete control)) | plant injury at 125 g/ha (corn (Zea mays); postemergence, visual injury rating after approximately 10 d, read-out: Corn plant response rating (0 to 100 scale, 0 no effect, 100 complete control))
90%: pest or weed control at 125 g/ha ([9]; postemergence, visual injury rating after approximately 10 d, read-out: Barnyardgrass plant response rating (0 to 100 scale, 0 no effect, 100 complete control))

O=C1NC[C@H](c2cc(C(F)(F)F)ccn2)[C@H]1C(=O)Nc1ccccc1F [Compound 948]
70%: pest or weed control at 125 g/ha ([3]; Postemergence, visual injury after approximately 10 d, 0 to 100 scale where 0 is no effect and 100 is complete control, read-out: Plant response rating, Foxtail, Giant) | pest or weed control at 125 g/ha ([9]; Postemergence, visual injury after approximately 10 d, 0 to 100 scale where 0 is no effect and 100 is complete control, read-out: Plant response rating, Barnyardgrass)
0%: pest or weed control at 125 g/ha ([1]; Preemergence, visual injury rating after approximately 10 d, read-out: Pigweed plant response rating (0 to 100 scale, 0 is no effect, 100 is complete control)) | pest or weed control at 500 g/ha ([1]; preemergence, visual injury rating about 10 d after treatment, 0 to 100 scale (0 no effect, 100 complete control), read-out: Pigweed plant response rating) | pest or weed control at 125 g/ha ([2]; Postemergence, visual injury after approximately 10 d, 0 to 100 scale where 0 is no effect and 100 is complete control, read-out: Plant response rating, Pigweed) | pest or weed control at 125 g/ha ([4]; Postemergence, visual injury after approximately 10 d, 0 to 100 scale where 0 is no effect and 100 is complete control, read-out: Plant response rating, Blackgrass) | plant injury at 125 g/ha ([5]; Postemergence, visual injury after approximately 10 d, 0 to 100 scale where 0 is no effect and 100 is complete control, read-out: Plant response rating, Wheat) | pest or weed control at 125 g/ha ([6]; Postemergence, visual injury after approximately 10 d, 0 to 100 scale where 0 is no effect and 100 is complete control, read-out: Plant response rating, Ragweed) | pest or weed control at 125 g/ha ([7]; Postemergence, visual injury after approximately 10 d, 0 to 100 scale where 0 is no effect and 100 is complete control, read-out: Plant response rating, Galium) | pest or weed control at 125 g/ha ([8]; Postemergence, visual injury after approximately 10 d, 0 to 100 scale where 0 is no effect and 100 is complete control, read-out: Plant response rating, Ryegrass, Italian) | pest or weed control at 125 g/ha (Kochia (Kochia scoparia); Postemergence, visual injury after approximately 10 d, 0 to 100 scale where 0 is no effect and 100 is complete control, read-out: Plant response rating, Kochia) | Corn plant response rating (crop injury, 0 = no effect, 100 = complete kill) at 125 g/ha (corn (Zea mays); Postemergence, visual injury after approximately 10 d, 0 to 100 scale where 0 is no effect and 100 is complete control) | pest or weed control at 250 g/ha (rice (Oryra sativa)) | pest or weed control at 250 g/ha [10] | pest or weed control at 250 g/ha [11] | pest or weed control at 250 g/ha [12]
